Source: paper PMC10096054, “A New Application of Spin and Fluorescence Double-Sensor Molecules” (Molecules, 2023)
Where two headings read alike, the source gives them in different places.

Target: T1, human serum albumin (HSA) (Homo sapiens, UniProt P02768)
T1 construct: gene ALB; commercial human serum albumin purchased from Merck
Assay: fluorescence polarization titration, nonlinear […] fit
Type: binding

T1 sequence (P02768 25-609): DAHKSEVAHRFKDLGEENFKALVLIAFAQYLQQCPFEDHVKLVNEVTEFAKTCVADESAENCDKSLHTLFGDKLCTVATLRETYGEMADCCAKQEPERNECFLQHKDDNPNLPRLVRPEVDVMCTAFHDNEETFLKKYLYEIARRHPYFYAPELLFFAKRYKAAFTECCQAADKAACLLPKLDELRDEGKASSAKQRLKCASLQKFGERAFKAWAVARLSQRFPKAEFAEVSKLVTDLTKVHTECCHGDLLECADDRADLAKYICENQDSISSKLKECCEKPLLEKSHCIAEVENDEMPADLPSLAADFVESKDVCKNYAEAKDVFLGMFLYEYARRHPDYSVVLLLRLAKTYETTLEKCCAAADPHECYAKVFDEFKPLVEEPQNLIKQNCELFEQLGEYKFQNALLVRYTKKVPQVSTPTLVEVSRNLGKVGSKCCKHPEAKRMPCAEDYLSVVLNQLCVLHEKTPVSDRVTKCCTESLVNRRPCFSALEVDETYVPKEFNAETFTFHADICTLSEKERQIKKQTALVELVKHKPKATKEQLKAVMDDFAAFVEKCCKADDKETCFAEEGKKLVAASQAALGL

CC1(C)C(CO)=C(c2ccc3ccc4cccc5ccc2c3c45)C(C)(C)N1[O] [compound 1, 3-hydroxymethyl-1-oxyl-4-(pyren-1-yl)-2,2,5,5-tetramethyl-2,5-dihydro-1H-pyrrole radical]
Kd: 1410 nM

CON1C(C)(C)C(CO)=C(c2ccc3ccc4cccc5ccc2c3c45)C1(C)C [compound 6, (1-methoxy-2,2,5,5-tetramethyl-4-(pyren-1-yl)-2,5-dihydro-1H-pyrrol-3-yl)methanol]
Kd (read-out: logK (1-HSA, Absence of 2) (converted)): 331 nM
